Tests used:
[1] = tested on: resveratrol biosynthesis gene (STS, ROMT); experiment: Transcription expression analysis (RT-PCR) of resveratrol biosynthesis genes after activity-inducing agent treatment of grape callus liquid culture; type: cell-based, Vitis vinifera L. cv Campbell Early; details: FIG. 2; for expression of the two genes (STS, ROMT): grape callus in MS1D liquid medium, 24 hours after treatment, RT-PCR
Procedure: In order to establish a production system of resveratrol from grape callus, transcription expression analysis was performed through a liquid culture of stabilized grape callus derived in Example 1 as described above. It was performed in which they were cultured in MS1D (4.4 g of MS, 30 g of sucrose, 0.5 g of MES, 0.1 g of Miyo-inositol, 0.4 mg thiamine HCl, and 1 mg/L of 2,4-D), which is called a Murashige & Skoog (MS) medium containing 1 mg/L of 2,4-D, liquid medium at 25° C. and 90 rpm for 7 days, followed by treatment with an activity-inducing agent. After 24 hours, total RNA was isolated from the grape callus (Kim C Y et al. 2010, Physiologia plantarum 139: 259-261). cDNA was synthesized from the isolated total RNA (5 μg) using First-Strand cDNA Synthesis Kit (Fermantas, Canada) as described in the instruction. The synthesized cDNA (20 μl) was diluted 2.5 times and then subjected to RT-PCR using 2 μl as a template for genes related to resveratrol and pterostilbene biosynthesis from the grape callus. PCR amplification was carried out by denaturation at 94° C. for 2 minutes, 25 cycles of at 95° C. for 30 seconds, 50° C. for 40 seconds, and 72° C. for 1 minute, and a final extension reaction at 72° C. for 10 minutes. The grape resveratrol, pterostilbene biosynthesis gene, and grapactin RT-PCR primers used for this experiment were as follows: […]
Various activity-inducing agents were used for the treatment so as to promote the production of stilbene compound. The activity-inducing agents used herein were methyl jasmonate (MeJA), abscisic acid (ABA), salicylic acid (SA), ethephon, flagellin 22 (Flg22), methyl viologen (MV), and chitosan. The results confirmed that the expression of the two genes increased when MeJA, SA, and Flg22 were used and that the gene expression was the highest when MeJA was used (see FIG. 2).

grape callus = experiment: Production of stilbene compounds in grape callus culture treated with activity-inducing agent and solubilizing agent, HPLC analysis of culture extract; type: cell-based, Vitis vinifera L. cv Campbell Early; details: with 100 μM MeJA, 7-day grape callus culture medium, 50 mM stevioside, FIG. 3
Procedure: Production of stilbene compounds was induced using the activity-inducing agent (100 μM MeJA) selected in Example 2 as described above. 20 ml of MS was inoculated with 2 g of grape callus, then cultured in a 125 ml flask for 7 days. Then, it was treated with 100 μM MeJA to obtain grape callus after 5 days. HPLC analysis was performed on the extract thereof. […] The experiment was performed to increase the production rate by solubilizing stilbene compound produced by treating with stevioside. As described above, 7-day grape callus culture was treated with 5 mM, 10 mM, 25 mM, and 50 mM stevioside at different concentrations or was treated with 100 μM MeJA and 5 mM, 10 mM, 2 5 mM, and 50 mM stevioside at different concentrations. After 5 days of culture, the samples were separated into callus and callus culture using a filter. The separated callus was filtered, followed by dehydration. The callus was frozen with liquid nitrogen and stored at −80° C. until extraction. The callus culture extract was directly extracted from the callus culture sample without storage so as to be used. […]

Row | SMILES | gene expression compared among activity-inducing agents ([1]; compared with ABA, SA, ethephon, Flg22, MV, chitosan) | expression of the two genes (STS, ROMT) [1] | content of the stilbene compound compared to the group untreated with stevioside (grape callus)
1 | CC/C=C\CC1C(=O)CCC1CC(=O)OC (stereo not shown) [MeJA, methyl jasmonate] | highest | increased | –
2 | O=C(O)c1ccccc1O [SA, salicylic acid] | – | increased | –
3 | C=C1C[C@@]23CC[C@H]4[C@@](C)(CCC[C@@]4(C)C(=O)O[C@@H]4O[C@H](CO)[C@@H](O)[C@H](O)[C@H]4O)[C@@H]2CC[C@]1(O[C@@H]1O[C@H](CO)[C@@H](O)[C@H](O)[C@H]1O[C@@H]1O[C@H](CO)[C@@H](O)[C@H](O)[C@H]1O)C3 [stevioside] | – | – | significantly increased

Reference: patent US10920248B2, “Method for mass-producing viniferin using stevioside from cell culture of grapevine tissue” (KOREA RESEARCH INSTITUTE OF BIOSCIENCE AND BIOTECHNOLOGY, priority 2016, dated 2021)
